In US5847159A, “1-[ω-(3,4-dihydro-2-naphthalenyl)alkyl]-cyclic amine derivatives, process for preparing the same, and pharmaceutical composition containing the same” (priority 1995, dated 1998):

Assays:
[1] = test system: bladder contractions induced by stimulation of the pelvic nerve, peripheral cut end; experiment: Effect on the bladder contractions induced by stimulation of the pelvic nerve (peripheral cut end); assay type: in vivo, Male Std-Wistar rats; conditions: 5 mg/kg i.v. (jugular vein), mean±SEM; for Inhibitory rate on the contraction caused by the stimulation of the peripheral cut end, 10 min. / Inhibitory rate on the contraction caused by the stimulation of the peripheral cut end, 20 min.: * p<0.05
From the text: (§1) Effect on the bladder contractions induced by stimulation of the pelvic nerve
(§2) Male Std-Wistar rats weighing 250-350 g were used. Under urethane anesthesia (1 g/kg, i.p.), both ureters were tied and cut at the side of kidney after a mid line incision of the abdomen. When the peripheral end of the pelvic nerve was stimulated, one side of the pelvic nerve was cut. When the central cut end of the nerve was stimulated, one side of the pelvic nerve was cut like in the peripheral end stimulation after both the hypogastric nerves were cut. Then, the bladder was exposed, the cannula connected to a syringe and a pressure transducer was inserted into the bladder via a small incision at an apex of the dome, and the proximal urethra was then ligated. Fifteen minutes after the operation, warm saline solution of an amount (0.1-0.2 ml) being small enough not to cause rhythmic contraction was infused into the bladder using a syringe. The change of the intravesical pressure was recorded on a recorder via a pressure transducer. The pelvic nerve was stimulated at the peripheral cut end or the central one by a pair of platinum electrodes with pulse of 1 msec duration, 3 v strength and a frequency of 10 Hz (for peripheral) or 5 v strength and a frequency of 20 Hz (for central), for 5 seconds every 2 minutes. Test compounds dissolved in distilled water were injected at a dose of 5 mg/kg via the cannula inserted into the jugular vein.
(§3) Each value in the table is mean±standard error of mean in 3-4 animals.

[2] = test system: rhythmic bladder contractions (micturition reflex); experiment: Inhibitory effect on rhythmic bladder contractions (micturition reflex); assay type: in vivo, Female Std-Wistar rats; conditions: i.d., rat; for ED50: 2 h, two hours, read-out: ED50, inhibitory effect on contractile frequency; for Potency on frequency of rhythmic bladder contractions relative to inaperisone hydrochloride (Compound A): compared with Compound A
Protocol: Inhibitory effect on rhythmic bladder contractions (micturition reflex)
The experiment was carried out according to the method of Maggi, C. […] It is generally accepted that the rhythmic bladder contractions evoked by instillation of saline solution into the bladder are mediated via the micturition reflex pathway like that of natural urination.
Female Std-Wistar rats weighing 160-190 g were used in groups of 3-4 animals. Under urethane anesthesia (1 g/kg, s.c.), both ureters were tied and cut at the side of kidney after a mid line incision of the abdomen. A cannula, connected to a syringe and a pressure transducer, was inserted into the bladder via the external urethral orifice and ligated around the proximal urethra. The animal was allowed to stay for about 30 minutes after the operation. The bladder was slowly filled with warm saline solution (0.4-1 ml) by means of a syringe until rhythmic contractions were induced. The change of the intravesical pressure was recorded on a recorder via a pressure transducer. After the rhythmic contractions became constant, test compounds dissolved or suspended in 0.5% aqueous tragacanth solution were administered via the cannula inserted for intraduodenal administration. The effect of each compound on the contractile frequency was investigated every 15 minutes till two hours after the administration.
The inhibitory rate on the contractile frequency (two hours) was expressed as the mean value of the inhibitory rates at an every 15-minute interval for two hours after the administration, which was determined based on the contractile frequency for 15 minutes before the administration.

exploratory behavior = experiment: Inhibitory effect on exploratory behavior; assay type: in vivo, Male Std-Wistar rats; conditions: 500 mg/kg p.o., rat; for Inhibitory rate, exploratory behavior: one hour after administration
Protocol: Inhibitory effect on exploratory behavior
Male Std-Wistar rats weighing 150-200 g were used in groups of 5 animals. One hour after oral administration of test compounds suspended in 0.5% aqueous tragacanth solution, animals were individually placed in a test cage (23×35×30 cm) on an Animex activity meter (Farad Co., Sweden). Immediately thereafter, locomotor counting was started and lasted for three minutes. The mean value of the exploratory behavior (count/3 minutes) in the test compound-treated groups were determined, and then inhibitory effect of each test compound was calculated as compared with that of the control group (0.5% aqueous tragacanth solution-treated group). The results are shown in Table 5 along with the results of Experiments 4 and 5.

[3] = test system: bladder contractions induced by stimulation of the pelvic nerve, central cut end; experiment: Effect on the bladder contractions induced by stimulation of the pelvic nerve (central cut end); assay type: in vivo, Male Std-Wistar rats; conditions: for Inhibitory rate on the contraction caused by the stimulation of the central cut end, 2 min. / Inhibitory rate on the contraction caused by the stimulation of the central cut end, 4 min. / Inhibitory rate on the contraction caused by the stimulation of the central cut end, 10 min. / Inhibitory rate on the contraction caused by the stimulation of the central cut end, 20 min.: 5 mg/kg i.v. (jugular vein), mean±SEM; for Inhibitory rate on the contraction caused by the stimulation of the central cut end, 2 min.: * p<0.05; for Inhibitory rate on the contraction caused by the stimulation of the central cut end, 4 min. / Inhibitory rate on the contraction caused by the stimulation of the central cut end, 20 min.: * p<0.05, ** <0.01; for Inhibitory rate on the contraction caused by the stimulation of the central cut end, 10 min.: ** <0.01; for Effect on contractions by stimulation of central cut end compared with peripheral cut end: 5 mg/kg i.v., rat
From the text: as §1, §2, §3

[4] = test system: neurogenic bladder, unstable bladder, and nervous pollakisuria; conditions: Nishinihon J. Urol., 54, 1472 and 1820 (1992); cited from earlier work
[5] = test system: polysynaptic spinal reflex; experiment: Inhibitory effect on polysynaptic spinal reflex; assay type: in vivo, Male Std-Wistar rats; conditions: rat; for ED50: iv, read-out: Inhibitory effect on polysynaptic spinal reflex, ID50; for Inhibitory effect on spinal reflex compared with Compound A: i.v.
Protocol: Inhibitory effect on polysynaptic spinal reflex
The experiment was performed according to the method of Itoh, et al. [Japan J. Parmacol.,23, 1125 (1982)]. Male Std-Wistar rats weighing 250-350 g were used in groups of 4-6 animals. Under anesthesia with combined i.p. injection of urethane (400 mg/kg) and α-chloralose (50 mg/kg), the rat fixed in a stereotaxic apparatus was clamped at the spine and tibial bane. A concentric needle electrode was inserted into the left gastrocnemius muscle, and the central end of the ipsilateral common peroneal nerve at the same side was supramaximally stimulated by an electrical stimulator (rectangular pulse,0.1 msec,0.1 Hz). Test compounds dissolved in distilled water were injected via a cannula inserted into the right femoral vein, and the evoked electromyogram was periodically recorded (2, 5, 10, 20 and 30 minutes after the injection). […] The results are shown in Table 5 along with the results of Experiments 3 and 5.

[6] = test system: rhythmic bladder contractions (micturition reflex); experiment: Inhibitory effect on rhythmic bladder contractions (micturition reflex); assay type: in vivo, Female Std-Wistar rats; conditions: judged from Experiments 1, 3, 4 and 5
in vivo = conditions: in vivo, po; mouse; 7 days; read-out: Acute toxicity LD50
From the text: (§4) Male ddY mice weighing 18-25 g were used in groups of 5-15 animals. Test compounds suspended in 0.5% aqueous tragacanth solution were given orally, and the mortality was investigated for 7 days following administration.

Male ddY mice = experiment: in vivo; conditions: p.o.; mouse
From the text: as §4

dopamine receptor = conditions: in vitro; cited from earlier work

SMILES	Inhibitory rate on the contraction caused by the stimulation of the peripheral cut end, 2 min. [1]	Inhibitory rate on the contraction caused by the stimulation of the peripheral cut end, 4 min. [1]	Inhibitory rate on the contraction caused by the stimulation of the peripheral cut end, 10 min. [1]	Inhibitory rate on the contraction caused by the stimulation of the peripheral cut end, 20 min. [1]	ED50 [2]	Inhibitory rate, exploratory behavior (exploratory behavior)	Inhibitory rate on the contraction caused by the stimulation of the central cut end, 2 min. [3]	Inhibitory rate on the contraction caused by the stimulation of the central cut end, 4 min. [3]	Inhibitory rate on the contraction caused by the stimulation of the central cut end, 10 min. [3]	Inhibitory rate on the contraction caused by the stimulation of the central cut end, 20 min. [3]	ED50 [5]	Potency on frequency of rhythmic bladder contractions relative to inaperisone hydrochloride (Compound A) [2]	Inhibitory effect on exploratory behavior compared with Compound A (exploratory behavior)	Separation of effect on micturition reflex from side effects (central depression, inhibition of spinal reflex) and toxicity, in comparison with Compound A [6]	Effect on contractions by stimulation of central cut end compared with peripheral cut end [3]	LD50 at 168 h (in vivo)	Acute toxicity compared with Compound A (Male ddY mice)	Inhibitory effect on spinal reflex compared with Compound A [5]	other results
CCc1ccc(C(=O)C(C)CN2CCCC2)cc1.Cl (centres unmarked) [Compound A, 1-(4-ethylphenyl)-2-methyl-3-(1-pyrrolidinyl)-1-propanone hydrochloride, reference compound]	6.2 ± 5.1%	14.7 ± 4.0%	25.1 ± 4.2%	31.6 ± 2.5%	34.8 mg/kg	28.3%	21.0 ± 10.7%	22.5 ± 7.3%	29.3 ± 7.7%	40.6 ± 8.8%	4.22 mg/kg	–	–	–	–	–	–	–	Efficacy for neurogenic bladder, unstable bladder, nervous pollakisuria [4]: effective for the symptoms such as neurogenic bladder, unstable bladder, and nervous pollakisuria
Cc1cc2c(cc1C)CCC(CCN1CCCC1)=C2 [Ex. 2, 1-[2-(3,4-dihydro-6,7-dimethyl-2-naphthalenyl)ethyl]-pyrrolidine]	0.4 ± 5.2%	16.3 ± 7.0%	13.7 ± 4.5%	19.0 ± 7.5%	4.4 mg/kg	0%	13.3 ± 5.1%	17.7 ± 2.8%	25.6 ± 3.7%	24.9 ± 4.1%	> 8 mg/kg	about 8 times more potent	less potent than that of Compound A	extremely separated from side effects	more potent than those on the contractions induced by the stimulation of peripheral cut end	620 mg/kg	also lower than that of Compound A	much weaker than that of Compound A	Effect on the amplitude of contraction [2]: suppressed the amplitude of contraction
C1=C(CCN2CCCCC2)CCc2ccccc21.Cl [1-[2-(3,4-dihydro-2-naphthalenyl)ethyl]piperidine hydrochloride]	–	–	–	–	–	–	–	–	–	–	–	–	–	–	–	–	–	–	Affinity for dopamine receptor (dopamine receptor): quite low affinity
Fc1cccc2c1CCC(CCN1CCCC1)=C2 [Ex. 1, 1-[2-(5-fluoro-3,4-dihydro-2-naphthalenyl)ethyl]-pyrrolidine]	4.4 ± 4.4%	3.4 ± 4.4%	3.2 ± 7.5%	9.6 ± 8.6%	4.3 mg/kg	16.2%	26.3 ± 10.0%	27.6 ± 5.6%	36.8 ± 10.1%	44.1 ± 5.8%	> 10 mg/kg	about 8 times more potent	less potent than that of Compound A	extremely separated from side effects	more potent than those on the contractions induced by the stimulation of peripheral cut end	556 mg/kg	also lower than that of Compound A	much weaker than that of Compound A	–
Cc1cc2c(cc1C)CCC(CCN1CCCCC1)=C2 [Ex. 43, 1-[2-(3,4-dihydro-6,7-dimethyl-2-naphthalenyl)ethyl]piperidine]	2.4 ± 3.3%	5.8 ± 6.3%	6.3 ± 8.1%	17.2 ± 12.2%	11.1 mg/kg	20.0%	6.0 ± 10.8%	22.8 ± 9.7%	28.3 ± 4.0%	37.3 ± 5.0%	3.82 mg/kg	~3 times more potent	almost equal to that of Compound A	extremely separated from side effects	more potent than those on the contractions induced by the stimulation of peripheral cut end	1040 mg/kg	about twice lower than that of Compound A	nearly equal to that of Compound A	–
